Source: patent publication US11840537B2, “Preparation and application of a 5-bromoquinazoline derivative” (Hefei University of Technology, priority 2020, dated 2023)
Structures can show the parent of a compound that is named as a salt.

Assays:
Assay type in all cases: cell-based
breast cancer cell MCF-7 = assay: Anti-cancer activity, breast cancer cell MCF-7; conditions: breast cancer cells (MCF-7)
[1] = system: hepatoma carcinoma cell SMMC-7721; assay: Anti-cancer activity, hepatoma carcinoma cell SMMC-7721; conditions: liver cancer (SMMC-7721)
leukemia HL-60 = assay: Anti-cancer activity, leukemia HL-60 cells
colon cancer SW480 = assay: Anti-cancer activity, colon cancer SW480 cells

Measured: strong inhibitory activity (ED50)

COC(=O)C1(Nc2nc(=O)[nH]c3ccc(Br)cc23)c2cc(Br)ccc2NC12C(=O)Nc1ccc(Br)cc12 (stereo not shown) [compound (I), 3-[5, 5′-dibromo-3-((6-bromo-2-oxo-1,2-dihydroquinazoline-4-amino)-2′-oxo (2,3′-spirobisindole)]methyl formate]
< 10.0 µg/mL: all assays above
